# Where two headings read alike, the source gives them in different places. Square brackets hold non-standard residues; d marks the D form. Peptide text beside a SMILES is read from it. * marks the point of attachment. Sta = CC(C)C[C@H](N)[C@@H](O)CC(=O)O; Isovaleryl = CC(C)CC(=O)*
# Experiments:
# [1] = test system: fibrinolytic enzyme produced by S. megasporus SD5; assay: Effect of protease inhibitors on fibrinolytic activity of the crude enzyme (FIG. 5); format: biochemical, Streptomyces megasporus SD5
# Source text: (§1) 1.Control, 2—Antipain—3, Bestatin, —4, Chymostatin, —5. E-64, 6—Leupeptin, 7—Pepstatin, 8 Phosphoramidon, 9—pefabloc, 10—EDTA, 11—EDTA+Ca^++, 12—Aprotinin, 13—Trypsin inhibitor, 14—β-mercaptoethanol, 15—TPCK, 16—1, 10 pheuanthroline, 17—PMSF.
# To determine the class to which the enzyme belonged the effect of different protease inhibitors were studied in detail.
# [2] = test system: fibrinolytic enzyme (actinokinase) produced by Streptomyces megasporus SD5, ~35 kDa, wild type; assay: Effects of various inhibitors on fibrinolytic activity of the enzyme (FIG. 5); format: biochemical; conditions: result in words
# Protocol: as §1
# The fibrinolytic (thrombolytic) activity was assayed on solid and liquid media (Harverkate & Trass 1974, Lottenberg et al. 1981). The reaction mixture (1 ml) comprised of chromogenic substrates, such as benzoyl-β-alanyl-glycyl-arginine-ρ nitroanilide (20 μmol 1^−1) in 10 mM sodium phosphate buffer, pH 8.0 and incubated at 55° C. for 30 min after addition of 1 ml, enzyme solution containing 0.5 μg protein ml^−1, cooled to room temperature and the liberation of ρ-nitroanilide was measured by increased absorbance recorded at 405 nm using a UV-VIS Spectrophotometer (DU 8B, Beckman, Sweden). One unit of the enzyme was defined as the amount of enzyme that catalysed the formation of 1 ng of ρ-nitroanilide min^−1. The caseinolytic activity was determined by Dunn (1989) in terms of μmol tyrosine min^−1. Protein was determined using Folin Ciocalteau phenol reagent. All the results of growth and assays are the means of three separate experiments.
# To determine the class to which the enzyme belonged the effect of different protease inhibitors were studied in detail. As the fibrinolytic enzyme could be used as a therapeutic agent for different types of thrombosis so in vitro clot lysis was studied with both natural and synthetic clots.
# actinokinase = assay: Effects of inhibitors and metal ions on activity of the purified enzyme; format: biochemical, Streptomyces megasporus SD5
# Protocol: (§2) Different protease inhibitors were separately dissolved in distilled water/methanol/dimethyl sulphoxide as per manufacturers protocol, so that final concentration of each inhibitor was 1 mM. The enzyme (50 μl) was mixed with same amount (50 μl) of inhibitor and incubate at ambient temperature for 30 min. The residual activity was measured at 55° C. as above using universal protease substrate and compared with that of the control without any inhibitor and the inhibition was determined as percentage taking control as 100% positive.
# [3] = test system: actinokinase, fibrinolytic enzyme from Streptomyces megasporus SD5, 35 kDa serine protease, wild type; conditions: 1 mM inhibitor, ambient temperature 30 min; residual activity at 55° C., universal protease substrate
# Protocol: as §2
# [4] = test system: actinokinase, fibrinolytic enzyme from Streptomyces megasporus SD5, 35 kDa serine protease, wild type; assay: Michaelis constant with Chromozyme U as substrate, Lineweaver-Burk plot; format: biochemical; conditions: in absence of plasminogen
# Protocol: The thrombolytic activity was measured on standard fibrin plate using the method of Haverkate-Trass (1974) as mentioned previously and compared with available thrombolytic enzyme, urokinase, Each sample (20 μl) was put on the fibrin clot layer and incubated at both 55° C. and 37° C. for 8 h. The zone of clear areas for standard urokinase and the enzyme of the invention was measured and thrombolytic activities of both enzymes were expressed in terms of Plough units. Amidolytic activity was determined using chromogenic substrates and one unit of activity is defined as the amount of enzyme, which released […] of pNA min^−1. Amydolytic activity in liquid medium was determined using the method by Lottenberg et al (1981). Caseinolytic activity was assayed by the procedure described by Pokorny et al (1979). Protein concentration was estimated by a modification of the Lowry's method (1951).
# Substrate specificity of the enzyme was assessed at 405 nm by using various synthetic peptide substrates, (20 μM) tagged with ρ-nitranilide acetate and resorufin, in the reaction mixture. The Michaelis constant (Km) was determined using Chromozyme U as substrate using line weaver Burk plot method (Jayaraman 1985).
# [5] = test system: Streptomyces megasporus SD5; assay: Antibiotic sensitivity of the strain; format: cell-based; conditions: concentration of 50 μg ml^−1
# [6] = Pharmacological properties of thrombolytic agents in acute myocardial infarctions; conditions: for Efficacy (<4 h): acute myocardial infarctions
# fibrin = conditions: prior art; cited from earlier work
# [7] = reportedly; cited from earlier work
# [8] = cited from earlier work
# [9] = Table III, available enzymes; cited from earlier work
# [10] = in vivo
# [11] = inhibitor 1 mM, purified enzyme, universal protease substrate, 55° C.
Compound,"effect of inhibitor on fibrinolytic activity of the enzyme ([1]; crude enzyme, FIG. 5)",effect of inhibitor on enzymatic activity (actinokinase; [11]),also measured
"c1cnc2c(c1)ccc1cccnc12 [1,10 phenanthroline]",No change,No change in activity,effect of inhibitor on fibrinolytic activity [2]: No change in the activity
CC(C)C[C@H](NC(=O)[C@@H](O)[C@H](N)Cc1ccccc1)C(=O)O [Bestatin],strongly repressed,highly repressed,
CC(C)C[C@H](NC(=O)[C@@H](NC(=O)N[C@@H](Cc1ccccc1)C(=O)O)[C@@H]1CCN=C(N)N1)C(=O)N[C@H](C=O)Cc1ccccc1 [Chymostatin],strongly repressed,highly repressed,
CC(C)C[C@H](NC(=O)[C@H]1O[C@@H]1C(=O)O)C(=O)NCCCCN=C(N)N [E-64],,Insignificant inhibition,
O=C(O)CN(CCN(CC(=O)O)CC(=O)O)CC(=O)O [EDTA],,,effect of inhibitor on fibrinolytic activity of the enzyme [1]: inhibitory effect; effect of inhibitor on fibrinolytic activity [2]: inhibitory effect; effect of inhibitor on enzymatic activity [3]: inhibitory effect; effect of inhibitor on enzymatic activity (actinokinase): inhibitory effect
CC(=O)N[C@@H](CC(C)C)C(=O)N[C@@H](CC(C)C)C(=O)N[C@H](C=O)CCCNC(=N)N [Leupeptin],moderately sensitive,moderately sensitive,
O=S(=O)(F)Cc1ccccc1 [PMSF],strongly repressed,highly repressed,
"Cl.NCCc1ccc(S(=O)(=O)F)cc1 [Pefabloc, pefabloc]",strongly repressed,highly repressed,
CC(C)CC(=O)N[C@H](C(=O)N[C@H](C(=O)N[C@@H](CC(C)C)[C@@H](O)CC(=O)N[C@@H](C)C(=O)N[C@@H](CC(C)C)[C@@H](O)CC(=O)O)C(C)C)C(C)C [Pepstatin] (Isovaleryl-VV[Sta]A[Sta]-OH),,Insignificant inhibition,
CC(C)C[C@H](NP(=O)(O)O[C@@H]1O[C@@H](C)[C@H](O)[C@@H](O)[C@H]1O)C(=O)N[C@@H](Cc1c[nH]c2ccccc12)C(=O)O [Phosphoramidon],No change,No change in activity,
Cc1ccc(S(=O)(=O)N[C@@H](Cc2ccccc2)C(=O)CCl)cc1 [TPCK],moderately sensitive,moderately sensitive,
"N=C(N)NCCC[C@H](NC(=O)CNC(=O)CCNC(=O)c1ccccc1)C(=O)Nc1ccc([N+](=O)[O-])cc1 [chromozyme U, Benzoyl-β-ala-gly-arg-4-ρNA] (HELM PEPTIDE1{[O=C(c1ccccc1)[*:2]].[bAla].G.R.[O=[N+]([O-])c1ccc(N[*:1])cc1]}$$$$V2.0)",,,Km [4]: 2.2 µM
CCC[C@@H]1C[C@@H](C(=O)N[C@@H]([C@H]2O[C@H](SC)[C@H](O)[C@@H](O)[C@H]2O)[C@@H](C)O)N(C)C1 [lincomycin],,,inhibition of the microorganism [5]: inhibited
CC(C)C[C@H](NP(=O)(O)O[C@@H]1O[C@@H](C)[C@H](O)[C@@H](O)[C@H]1O)C(=O)N[C@@H](Cc1c[nH]c2ccccc12)C(=O)O [phosphoramidin],,,effect of inhibitor on fibrinolytic activity [2]: No change in the activity
C=C(NC(=O)C(=C)NC(=O)c1csc(C2=N[C@@H]3c4csc(n4)[C@H]4NC(=O)c5csc(n5)[C@H]([C@](C)(O)[C@@H](C)O)NC(=O)[C@H]5CSC(=N5)/C(=C/C)NC(=O)[C@H]([C@@H](C)O)NC(=O)c5csc(n5)[C@]3(CC2)NC(=O)[C@H](C)NC(=O)C(=C)NC(=O)[C@H](C)NC(=O)[C@H]([C@@H](C)CC)N[C@@H]2C=Cc3c([C@H](C)O)cc(nc3[C@H]2O)C(=O)O[C@@H]4C)n1)C(N)=O [thiostrepton],,,inhibition of the microorganism [5]: inhibited
OCCS [β-mercaptoethanol],,Insignificant inhibition,
Aprotinin,strongly repressed,highly repressed,
Streptokinase: prior art plasminogen activator,,,Efficacy (<4 h) [6]: 65; Adverse effects ([6]; in vivo): Haemorragic; Half life ([6]; in vivo): 23 min; affinity for fibrin (fibrin): do not show any affinity; failure rate as thrombolytic agent [7]: ≤ 25%
T-PA: tissue plasmiogen activators,,,"Efficacy (<4 h) ([8]; acute myocardial infarctions, data from the literature): 70; Half life ([8]; in vivo): 5 min"
Urokinase,,,Optimum Temperature [9]: 37 °C; Optimum pH [9]: 7.5; Efficacy (<4 h) [6]: 65; Half life [10]: 16 min; affinity for fibrin (fibrin): do not show any affinity

# Reference: US20030170221A1, “STREPTOMYCES MEGASPORUS SD5, PROCESS FOR THE ISOLATION THEREOF, NOVEL FIBRINOLYTIC ENZYME PREPARED THEREFROM, PROCESS FOR THE PRODUCTION OF SAID ENZYME AND METHOD OF TREATMENT OF THROMBOLYTIC DISORDERS USING SAID ENZYME” (MAHARASHTRA ASSOC. FOR THE CULTIVATION OF SCIENCE, priority 2001, published 2003)
